Source: article PMC8584173, “The Cytotoxic Effect of Copper (II) Complexes with Halogenated 1,3-Disubstituted Arylthioureas on Cancer and Bacterial Cells” (International Journal of Molecular Sciences, 2021)
Where “and” joins values, the source holds several entries; their conditions need not be identical. Equal values may be shown once.

Columns and labels:
standard staphylococci = test: MIC, standard staphylococci; type: cell-based, Staphylococcus; details: standard staphylococci / S. aureus isolates
Procedure: (§1) The antimicrobial activity of the compounds was tested on Gram-positive bacteria (Staphylococcus aureus NCTC 4163, Staphylococcus aureus ATCC 25923, Staphylococcus aureus ATCC 6538, Staphylococcus aureus ATCC 29213, Staphylococcus epidermidis ATCC 12228, Staphylococcus epidermidis ATCC 35984), Gram-negative rods (Escherichia coli ATCC 10538, Escherichia coli ATCC 25922, Pseudomonas aeruginosa ATCC 15442, Pseudomonas aeruginosa ATCC 27863) and yeasts (Candida albicans ATCC 10231, Candida albicans ATCC 90028, Candida parapsilosis ATCC 22019). Hospital methicillin-resistant strains of Staphylococcus aureus and Staphylococcus epidermidis were obtained from the collection of the Department of Pharmaceutical Microbiology, Medical University of Warsaw, Poland.
(§2) Antifungal activities were assessed using Mueller–Hinton agar + 2% glucose and 0.5 µg/mL methylene blue dye medium. Sterile filter paper discs (9 mm diameter, Whatman Number 3 chromatography paper) were dripped with tested compound solutions (in dimethylsulfoxide, DMSO) to load 400 μg of a given compound per disc. Dry discs were placed on the surface of appropriate agar medium. The results (diameter of the growth inhibition zone) were read after 18 h of incubation at 35 °C. Minimal inhibitory concentration (MIC) was tested by the twofold serial microdilution method (in 96-well microtiter plates) using Mueller–Hinton broth medium (Beckton Dickinson) for bacteria or RPMI-1640 medium for Candida species, according to CLSI guidelines. The stock solution of tested agent was prepared in DMSO and diluted in sterile water. […] The final inoculum of all studied microorganisms was 10^5 CFU/ mL^−1 (colony forming units per ml). Minimal inhibitory concentrations (the lowest concentration of a tested agent that prevents visible growth of a microorganism) were read after 18 h (bacteria) or 24 h (yeasts) of incubation at 35 °C.

[1] = test system: hospital S. aureus (MRSA); test: MIC, hospital S. aureus; type: cell-based, Staphylococcus aureus; details: clinical S. aureus rods (six for 1–4, 7, 8)
Procedure: as §1, §2

[2] = test system: Glutathione S-transferase P (GSTP1_HUMAN); test: LC–MS proteome analysis, GSTP1; type: cell-based, Homo sapiens; details: IC50 concentration, % of control
Procedure: (§3) Enzymes involved in oxidoreductive potential were analyzed in the cell lysates obtained after treatment cells with selected conjugates for 24 h. Cells were washed with phosphate-buffered saline (PBS) and harvested, then centrifuged at 1000× g for 10 min. Then, lysis buffer (containing protease inhibitor, 1% RIPA Lysis and Extraction Buffer (ThermoFisher)) and cold PBS were added, and samples were sonicated three times in ice bath. Next, the cell lysates were centrifuged at 14,000× g at 4 °C for 15 min, and then supernatants were stored at […] before use. Protein concentration was measured by the Bradford method.
(§4) Normalized protein concentrations (5 µg) from cell lysate were precipitated by ice cold (–20 °C) acetonitrile (ACN, Merck, in ratio 1:4). Then, samples were centrifuged (–9 °C, 30 min., 18,000× g), the supernatant was discarded and ACN excess was evaporated using a vacuum centrifuge (5 min., room temp.). Protein pellet was dissolved in 40 mM ammonium bicarbonate. An amount of 500 mM dithiothreitol (DTT, with final concentration 20 mM) and 1 M iodoacetamide (IAA, with final concentration 40 mM) were used for reduction and alkylation processes. After 16 h of incubation in 37 °C with Trypsin Gold (Promega), digested protein samples were diluted with 0.1% formic acid (ThermoFisher) and centrifuged (+2 °C, 30 min, 18,000× g).
(§5) LC–MS analysis was carried out with the use of nanoUHPLC (nanoElute, Bruker) coupled by CaptiveSpray (Bruker) to ESI-Q-TOF mass spectrometer (Compact, Bruker). Two-column separation method was used, i.e., pre-column (300 µm × 5 mm, C18 PepMap 100, 5 µm, 100Å, Thermo Scientific) and Aurora separation column with CSI fitting (75 µm × 250 mm, C18 1.6 µm) in gradient 2% B to 35% B in 90 min with the 300 nL/min flow rate. Mobile phases (A) 0.1% formic acid in water and (B) 0.1% formic acid in ACN were used.
(§6) Sample ionizations were performed at a gas flow of 3.0 L/min, temperature of 150 °C and voltage of the capillary at 1600 V. The quadrupole energy was fixed to 5.0 eV and collision chamber energy 7.0 eV, with an ion transfer time of 90 µs. The ions were analyzed in the positive polarity mode in the range 150–2200 m/z, with the acquisition frequency of the 1 Hz spectrum, as well as with the autoMS/MS system.
(§7) The collected spectra were analyzed and calibrated using DataAnalysis software (Bruker) and then identified in ProteinScape (Bruker) by the MASCOT server. Protein identification was conducted using the online SwissProt and NCBIprot databases, and their references and biological significance were identified using Reactome.org, String.org and KEGG.

interleukin-6 (IL-6) = test: IL-6 level assay (ELISA); type: cell-based, human; details: 72 h
Procedure: IL-6 concentration at all studied cancer cells and normal HaCaT cell lines was measured by ELISA kit (Diaclon SAS Besancon Cedex, France). […] IL-6 in cell culture supernatant was measured using enzyme-linked immunosorbent assay in accordance with the manufacturer’s protocol.

[3] = test system: Peroxiredoxin-2 (PRDX2_HUMAN); test: LC–MS proteome analysis, PRDX2; type: cell-based, Homo sapiens; details: IC50 concentration, % of control
Procedure: as §3, §4, §5, §6, §7

SW620 cells = test: Annexin V-FITC/PI flow cytometry, SW620; type: cell-based, human; details: SW620, IC50 dose, 72 h
Procedure: The cells were cultured and harvested under the conditions described in the cell culture section. […] The effect of these compounds on the process of early and late apoptosis and necrosis was determined, as described previously, by dual staining with annexin V-FITC and propidium iodide according to manufacturer’s protocol (Becton Dickinson). The cells that were annexin V-FITC positive and PI-negative were identified as early apoptotic and annexin V-FITC and PI-positive as late apoptotic or necrotic.

[4] = test system: Glutathione S-transferase A1 (GSTA1_HUMAN); test: LC–MS proteome analysis, GSTA1; type: cell-based, Homo sapiens; details: IC50 concentration, % of control
Procedure: as §3, §4, §5, §6, §7

[5] = test system: Thioredoxin-dependent peroxide reductase, mitochondrial (PRDX3_HUMAN); test: LC–MS proteome analysis, PRDX3; type: cell-based, Homo sapiens; details: IC50 concentration, % of control
Procedure: as §3, §4, §5, §6, §7

[6] = test system: Peroxiredoxin-4 (PRDX4_HUMAN); test: LC–MS proteome analysis, PRDX4; type: cell-based, Homo sapiens; details: IC50 concentration, % of control
Procedure: as §3, §4, §5, §6, §7

## O=[N+]([O-])c1cc([N+]2=C(Nc3ccc(Cl)c(Cl)c3)[S][Cu-2]23[S]C(Nc2ccc(Cl)c(Cl)c2)=[N+]3c2ccc(Cl)c([N+](=O)[O-])c2)ccc1Cl [Compound 5, Copper (II) complex with 1-(4-chloro-3-nitrophenyl)-3-(3,4-dichlorophenyl)thiourea]
Standard staphylococci
  MIC: 16 to 32 mg/L and 32 mg/L
[1]
  times stronger / more potent than ciprofloxacin: 4–16 times

## O=[N+]([O-])c1cc([N+]2=C(Nc3cccc(Br)c3)[S][Cu-2]23[S]C(Nc2cccc(Br)c2)=[N+]3c2ccc(Cl)c([N+](=O)[O-])c2)ccc1Cl [Compound 2, Copper (II) complex with 1-(3-bromophenyl)-3-(4-chloro-3-nitrophenyl)thiourea]
Standard staphylococci
  MIC: 16 to 32 mg/L

## O=[N+]([O-])c1cc(NC2=[N+](c3ccc(Cl)c([N+](=O)[O-])c3)[Cu-2]3([S]2)[S]C(Nc2ccc(Cl)c([N+](=O)[O-])c2)=[N+]3c2ccc(Cl)c([N+](=O)[O-])c2)ccc1Cl [Compound 6, Copper (II) complex with 1,3-bis(4-chloro-3-nitrophenyl)thiourea]
[1]
  times stronger / more potent than ciprofloxacin: 4–16 times

## O=[N+]([O-])c1cc([N+]2=C(Nc3ccccc3Br)[S][Cu-2]23[S]C(Nc2ccccc2Br)=[N+]3c2ccc(Cl)c([N+](=O)[O-])c2)ccc1Cl [Compound 1, Copper (II) complex with 1-(2-bromophenyl)-3-(4-chloro-3-nitrophenyl)thiourea]
[2]; PC3, 24 h
  Protein Intensity, % (GSTP1): 95.0%
[2]; SW480, 24 h
  Protein Intensity, % (GSTP1): 84.8%
[2]; SW620, 24 h
  Protein Intensity, % (GSTP1): 74.4%
interleukin-6 (IL-6); PC3, IC50 dose
  reduction of IL-6 secretion, times: 1.5 times
interleukin-6 (IL-6); SW480, IC50 dose, vs control
  reduction of IL-6 level, times: 1.9 times
interleukin-6 (IL-6); SW620, IC50 dose
  reduction of IL-6 concentration, times: 2.4 times
[3]; PC3, 24 h
  Protein Intensity, % (PRDX2): 42.3%
[3]; SW480, 24 h
  Protein Intensity, % (PRDX2): 95.5%
[3]; SW620, 24 h
  Protein Intensity, % (PRDX2): 92.1%
SW620 cells
  early apoptosis, % of cells: 38.4% ± 2.4%
[4]; PC3, 24 h
  Protein Intensity, % (GSTA1): 84.4%
[4]; SW480, 24 h
  Protein Intensity, % (GSTA1): 78.3%
[4]; SW620, 24 h
  Protein Intensity, % (GSTA1): 50.2%
[5]; PC3, 24 h
  Protein Intensity, % (PRDX3): 69.5%
[5]; SW480, 24 h
  Protein Intensity, % (PRDX3): 95.2%
[5]; SW620, 24 h
  Protein Intensity, % (PRDX3): 69.9%
[6]; PC3, 24 h
  Protein Intensity, % (PRDX4): 72.6%
[6]; SW480, 24 h
  Protein Intensity, % (PRDX4): 67.6%
[6]; SW620, 24 h
  Protein Intensity, % (PRDX4): 79.4%
